Results: PMC3030572, “Antamanide, a Derivative of Amanita phalloides, Is a Novel Inhibitor of the Mitochondrial Permeability Transition Pore” (PLoS ONE, 2011)
“Also recorded” adds a separate entry of the source. Where two headings read alike, the source gives them in different places.

Tests used:
[1] = tested on: muscle samples derived from patients affected by Ullrich muscular dystrophy; conditions: ref [37]; cited from earlier work
Description: (§1) CyP-D is a promising pharmacological target.

[2] = tested on: mouse model of the disease; conditions: ref [38]; cited from earlier work
Description: as §1

HeLa cells [3] = type: cell-based, human
Procedure: A, cytofluorimetric analysis of cell death induction in HeLa cells treated for 1 hour with TAT-HK. […] TAT-Ctr was used as a negative control. Cells were double stained with Annexin V-FITC and propidium iodide (PI), to respectively evaluate apoptosis induction as phosphatidylserine exposure on the cell surface (increased Annexin V-FITC staining) and cell death as plasma membrane permeabilization (increased PI staining). We considered Annexin V^+ as early/intermediate apoptotic cells; PI^+ as necrotic cells; double stained as late apoptotic cells. Bar graphs display the percentage of each cell population (mean±SD, n = 4; double positive cells are added to both bars). […] B, histograms reporting a representative experiment, where viable cells are indicated in red, PI^+- and Annexin V^+-cells are indicated in grey and green, respectively.
(§2) Flow cytometry recordings were performed as described, [51], [52]. Briefly, at the end of the incubation, cells were resuspended in 135 mM NaCl, 10 mM HEPES, 5 mM CaCl2 and incubated at 37°C in either TMRM (10 nM) to detect mitochondrial depolarization (reduced TMRM staining), or in FITC-conjugated Annexin-V and propidium iodide (PI, 1 µg/ml), to detect phosphatidylserine exposure on the cell surface (increased FITC-conjugated Annexin-V staining) and loss of plasma membrane integrity (PI permeability and staining). […] Samples were analyzed on a FACSCanto II flow cytometer (Becton Dickinson, San Diego, CA, USA). Data acquisition and analysis were performed using FACSDiva software.

malignancies = conditions: ref [47]; cited from earlier work
lymphocyte activation = conditions: via CyP-A/CsA complex; ref [36]; cited from earlier work
Description: (§3) CyP-D is a promising pharmacological target. It is part of the CyP protein family, composed by ubiquitous and extremely conserved proteins located in different subcellular compartments, [35].

HCV/HIV = conditions: ref [35]; cited from earlier work
Description: as §3

[4] = tested on: tumor necrosis; metastasis formation; conditions: ref [45]; cited from earlier work
immunosuppressant = tested on: immunosuppressant; set-up: method as in PMID 1494502, PMID 8441706; conditions: ref [10], [11]; cited from earlier work
Description: (§4) Antamanide (AA) is a monocyclic, homodetic decapeptide isolated from the poisonous mushroom Amanita phalloides. […] Little is known about the biochemical mechanisms underlying these diverse bioactivities. […] The CyP chaperone activity, i.e. the isomerization to the cis form of the peptidyl bonds preceding each proline, is involved in folding and association processes required for proteins to perform thei ...

[5] = tested on: multidrug resistance proteins; conditions: ref [50]; cited from earlier work
HeLa cells [6] = type: cell-based, human; conditions: data not shown
HeLa cells [7] = type: cell-based, human; conditions: TMRM; for induction of mitochondrial depolarization / percentage of cells with depolarized mitochondria: difference from untreated cells: 1 hour; for percentage of cells with depolarized mitochondria: difference from untreated cells: Student's t test, Figure 5B
Procedure: Figure 5 Effect of AA on mitochondrial potential of HeLa cells. A, bar graphs report the ratio between the CRC detected in the presence (CRC) and absence (CRC0) of increasing concentrations of AA in mitochondria from HeLa cells. […] B,C cytofluorimetric analysis of mitochondrial depolarization. HeLa cells were incubated with the TMRM probe and treated for 1 hour with the reported concentrations of either clotrimazole (CTM) or TAT-HK peptide. An unrelated TAT-linked peptide (TAT-Ctr) is used as a negative control. […] Bar graphs in B display the percentage of cells with depolarized mitochondria (mean±SD, n = 4). […] Histograms in C report a representative experiment, where cells with polarized and depolarized mitochondria are indicated in red and grey, respectively.
as §2

[8] = tested on: mitochondrial permeability transition pore (PTP); type: biochemical, mouse
Procedure: A, chemical structure of AA. B, D, Ca^2+ retention capacity (CRC) either in phosphate (Pi) buffer (B) or in arsenate (Asi) buffer (D). Calcium Green-5N fluorescence is reported as arbitrary units on the y axis.
Mitochondria were isolated either from livers of C57BL/6 mice through sequential centrifugations, or from cells, as described. To obtain mitochondria, cells were disrupted with a glass-Teflon potter in a buffer composed by 250 mM sucrose, 10 mM Tris-HCl, 0.1 mM EGTA-Tris, pH 7.4. Nuclei and plasma membrane fractions were separated by a first mild centrifugation (700× g, 10 min), and mitochondria were then spinned down at a higher speed (7000× g, 10 min). All procedures were carried out at 0–4°C.
PTP opening was detected as a fluorescence increase.

[9] = tested on: mitochondrial permeability transition pore (PTP); conditions: ref [30]; cited from earlier work
Description: AA is the cyclodecapeptide c([…] (Figure 1A). To evaluate its effect on the PTP, we performed Ca^2+ retention capacity (CRC) assays on isolated mouse liver mitochondria (MLM).

[10] = tested on: organic anion-transporting polypeptide family; conditions: also our unpublished data; ref [8]; cited from earlier work
Description: as §4

[11] = tested on: mitochondrial permeability transition pore (PTP); conditions: ref [37]; cited from earlier work
Procedure: Briefly, at the end of the incubation, cells were resuspended in 135 mM NaCl, 10 mM HEPES, 5 mM CaCl2 and incubated at 37°C in either TMRM (10 nM) to detect mitochondrial depolarization (reduced TMRM staining), or in FITC-conjugated Annexin-V and propidium iodide (PI, 1 µg/ml), to detect phosphatidylserine exposure on the cell surface (increased FITC-conjugated Annexin-V staining) and loss of plasma membrane integrity (PI permeability and staining).

HeLa cells [12] = type: cell-based, human; conditions: phalloidin 50 µg/ml, 1 hour, TMRM, Figure S1B
[13] = 30 min preincubation, then TAT-HK 1 hour

Debio-025
mitochondrial function and apoptotic rate [1]: normalizes mitochondrial function and apoptotic rate
mitochondrial function and apoptotic rate [2]: normalizes mitochondrial function and apoptotic rate

cyclosporin A [CsA]
effect on TAT-HK-induced necrotic response (HeLa cells [3]; [13]): virtually abolished the necrotic response
residual apoptosis after TAT-HK (HeLa cells [3]; [13]): a small fraction of cells undergoing apoptosis was still detectable
protection from TAT-HK induced death (HeLa cells [3]; 30 min preincubation, then TAT-HK 1 hour, n = 4, Student's t test *: p<0.01): significantly protected from TAT-HK induced death
effect on progression of malignancies (malignancies): can enhance the progression of certain malignancies
inhibition of lymphocyte activation (lymphocyte activation): inhibits lymphocyte activation
prevention of HCV/HIV replication (HCV/HIV): prevent HCV/HIV replication
effect on tumor necrosis and metastasis [4]: induces tumor necrosis and abrogates metastasis formation
immunosuppressant activity (immunosuppressant): act as immunosuppressants
inhibition of multidrug resistance proteins [5]: inhibits multidrug resistance proteins
inhibition of clotrimazole-induced cell death (HeLa cells [6]; clotrimazole): inhibited the process
reversal of CTM-induced mitochondrial depolarization (HeLa cells [7]; 30 min preincubation, then CTM 1 hour, n = 4): significantly decreased the percentage of cells with mitochondria depolarized by CTM (Student's t test analysis; *: p<0.01); also recorded: similarly reverted
reversal of TAT-HK-induced mitochondrial depolarization (HeLa cells [7]; 30 min preincubation, then TAT-HK 1 hour, n = 4): similarly reverted

COC1=C(OC)C(=O)C(C)=CC1=O [Ub0, Ubiquinone 0, reference compound]
CRC/CRC0: difference from CRC of untreated mitochondria ([8]; AA at various concentrations, Figure 1C and D, mean±SD of at least 4 experiments, Student's t test): significant difference (Student's t test analysis; *: p<0.01)
PTP inhibition in arsenate ([8]; arsenate (Asi) buffer, Figure 1B, D): inhibits the pore also in Asi buffer, albeit to a lesser extent
PTP inhibition when phosphate is substituted with arsenate [9]: the effect of CsA, but not of Ub0, is abolished

MIASHLLAYFFTELNbA-GYGRKKRRQRRRG [TAT-HK, HKII-displacing peptide]
cell death induction (HeLa cells [3]; TAT-HK 1 hour, Annexin V / propidium iodide): fast and dramatic cell death, mainly necrosis
number of PI+ cells: difference from untreated cells (HeLa cells [3]; TAT-HK 1 hour, n = 4, Student's t test #: p<0.01): significantly increased
induction of mitochondrial depolarization (HeLa cells [7]): marked mitochondrial depolarization
percentage of cells with depolarized mitochondria: difference from untreated cells (HeLa cells [7]; n = 4): significant difference (Student's t test analysis; #: p<0.01)

CO[C@H]1C[C@@H]2CC[C@@H](C)[C@@](O)(O2)C(=O)C(=O)N2CCCC[C@H]2C(=O)O[C@H]([C@H](C)C[C@@H]2CC[C@@H](O)[C@H](OC)C2)CC(=O)[C@H](C)/C=C(\C)[C@@H](O)[C@@H](OC)C(=O)[C@H](C)C[C@H](C)/C=C/C=C/C=C/1C [rapamycin]
inhibition of cell uptake of phalloidin [10]: cell uptake of phalloidin was also inhibited

cyclosporin H
activity on the PTP [11]: inactive on the PTP

phalloidin [reference compound]
activity on the PTP ([8]; phalloidin 50 µg/ml): inactive on the PTP
effect on mitochondrial Ca2+ retention capacity ([8]; phalloidin 50 µg/ml, MLM, 3 experiments, Figure S1A): could not detect any effect
effect on mitochondrial potential (HeLa cells [12]): could not detect any effect

Clc1ccccc1C(c1ccccc1)(c1ccccc1)n1ccnc1 [CTM, clotrimazole]
cell death induction by clotrimazole (HeLa cells [6]; compared with TAT-HK): A similar degree of cell death was observed
induction of mitochondrial depolarization (HeLa cells [7]): marked mitochondrial depolarization
percentage of cells with depolarized mitochondria: difference from untreated cells (HeLa cells [7]; n = 4): significant difference (Student's t test analysis; #: p<0.01)

C=CC[C@@H]1/C=C(\C)C[C@H](C)C[C@H](OC)[C@H]2O[C@@](O)(C(=O)C(=O)N3CCCC[C@H]3C(=O)O[C@H](/C(C)=C/[C@@H]3CC[C@@H](O)[C@H](OC)C3)[C@H](C)[C@@H](O)CC1=O)[C@H](C)C[C@@H]2OC [FK506]
inhibition of cell uptake of phalloidin [10]: cell uptake of phalloidin was also inhibited

N#CC(C#N)=NNc1ccc(OC(F)(F)F)cc1 [FCCP]
mitochondrial depolarization (positive control) (HeLa cells [7]; FCCP 4 µM): full mitochondrial depolarization
